# Measurements from ChEMBL document CHEMBL1201862, “PubChem BioAssay data set” (2004).
#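 Cultured in 96-well plates, cells were exposed to test compound for 48 hours across five concentrations. GI50: concentration for 50% inhibition of growth.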 The source made the active and inactive calls. Cut-off read from the data, not from the text of the source: active = GI50 up to about 1.1 µM and inactive = higher.
# Assays:
# Assay in all cases: DTP human tumour cell line panel, 48 h
# [1] = test system: SF-539
# [2] = test system: SF-268
# [3] = test system: HCC 2998
# [4] = test system: NCI-H23
# [5] = test system: Malme-3M
# [6] = test system: SK-MEL-2
# [7] = test system: BT-549
# [8] = test system: NCI/ADR-RES
# [9] = test system: SK-OV-3
# [10] = test system: NCI-H460
# [11] = test system: UACC-257
# [12] = test system: MCF7
# [13] = test system: COLO 205
# [14] = test system: OVCAR-5
# [15] = test system: LOX IMVI
# [16] = test system: SN12C
# [17] = test system: U-251
# [18] = test system: HCT-15
# [19] = test system: A549
# [20] = test system: CAKI-1
SMILES,GI50 [1],GI50 [2],GI50 [3],GI50 [4],GI50 [5],GI50 [6],GI50 [7],GI50 [8],GI50 [9],GI50 [10],GI50 [11],GI50 [12],GI50 [13],GI50 [14],GI50 [15],GI50 [16],GI50 [17],GI50 [18],GI50 [19],GI50 [20]
CCN(CC)C1Oc2cc3c(cc2C(c2cc(OC)c(O)c(OC)c2)C1C)OCO3 (stereo not given),11.3 µM (inactive),16.3 µM (inactive),7.01 µM (inactive),28.8 µM (inactive),3.55 µM (inactive),18.7 µM (inactive),6.95 µM (inactive),5.92 µM (inactive),9.18 µM (inactive),6.18 µM (inactive),25 µM (inactive),4.85 µM (inactive),15.5 µM (inactive),14.2 µM (inactive),9.66 µM (inactive),15.2 µM (inactive),10.5 µM (inactive),12.6 µM,11.7 µM (inactive),12.5 µM (inactive)
COc1cc2c(cc1OC(=O)c1cc3ccccc3[nH]1)N=C[C@@H]1CCCN1C2=O,0.281 µM (active),0.706 µM (active),0.269 µM (active),0.37 µM (active),0.398 µM (active),0.224 µM (active),0.638 µM (active),0.461 µM (active),1.35 µM (inactive),0.344 µM (active),0.268 µM (active),0.397 µM (active),0.202 µM (active),0.255 µM (active),0.332 µM (active),0.221 µM (active),0.292 µM (active),0.475 µM,0.662 µM (active),0.294 µM (active)
CC(C)C(C/C=C1/CC(CO)(COC(=O)C(C)(C)C)OC1=O)C(C)C (stereo not given),0.598 µM (active),10.8 µM (inactive),3.1 µM (inactive),9.51 µM (inactive),3.62 µM (inactive),15.1 µM (inactive),13.5 µM (inactive),15.7 µM (inactive),16.7 µM (inactive),7.76 µM (inactive),16.8 µM (inactive),18.4 µM (inactive),0.0678 µM (active),11.6 µM (inactive),12.3 µM (inactive),11.1 µM (inactive),12.6 µM (inactive),16.9 µM,1.09 µM (active),3.3 µM (inactive)
CCN1CCN(c2ccc(Nc3ccnc4ccc5c(nnn5C)c34)cc2)CC1,2.98 µM (inactive),6.46 µM (inactive),1.58 µM (inactive),11.6 µM (inactive),5.89 µM (inactive),12.2 µM (inactive),17.3 µM (inactive),9.14 µM (inactive),11.4 µM (inactive),2.97 µM (inactive),13.2 µM (inactive),4.44 µM (inactive),2.78 µM (inactive),9.16 µM (inactive),3.14 µM (inactive),3.53 µM (inactive),5.69 µM (inactive),3.95 µM,7.83 µM (inactive),5.48 µM (inactive)
C/C=C1\C(=O)OC2CCN3CCC(COC(=O)C(C)(O)C(C)C1O)C23 (stereo not given),> 100 µM (inactive),> 100 µM (inactive),> 100 µM (inactive),> 100 µM (inactive),> 100 µM (inactive),> 100 µM (inactive),> 100 µM (inactive),> 100 µM (inactive),> 100 µM (inactive),> 100 µM (inactive),> 100 µM (inactive),> 100 µM (inactive),> 100 µM (inactive),> 100 µM (inactive),> 100 µM (inactive),> 100 µM (inactive),> 100 µM (inactive),> 100 µM,> 100 µM (inactive),> 100 µM (inactive)
COC(OC)C1(c2ccccc2)Oc2ccccc2C1=O (stereo not given),> 100 µM (inactive),> 100 µM (inactive),> 100 µM (inactive),50.1 µM (inactive),> 100 µM (inactive),> 100 µM (inactive),85.9 µM (inactive),80.7 µM (inactive),> 100 µM (inactive),> 100 µM (inactive),> 100 µM (inactive),> 100 µM (inactive),> 100 µM (inactive),> 100 µM (inactive),> 100 µM (inactive),> 100 µM (inactive),> 100 µM (inactive),> 100 µM,> 100 µM (inactive),> 100 µM (inactive)
